Data set [1] concerns fibroblasts from patients harboring mitochondrial mutations (Leigh Syndrome/LHON, MELAS, KSS) and MERRF cybrid cell line. Description: Gene expression analysis in cells harboring mitochondrial mutations. The format is cell-based, human. The conditions noted are these: for ACADVL expression: FIG. 3C. The text has this: Leigh syndrome/Leber's hereditary optic neuropathy (LHON) cells were isolated from a patient diagnosed with both Leigh syndrome and LHON. This subject had two point mutations; one in the mtDNA-encoded ND4 gene (mutation 11778G>A) and one in the mtDNA encoded ND6 gene (mutation 14484T>C) in the NADH dehydrogenase complex. m.3243A>G MELAS (Mitochondrial encephalomyopathy, lactic acidosis, and stroke-like episodes) cells were isolated from a patient harboring the m.3243A>G mutation in the mtDNA-encoded tRNA-leucine gene. Kearns Sayre Syndrome (KSS) fibroblast cells were isolated from a patient harboring the 5 kilobase (Kb) common deletion and were obtained from the Coriell Institue along with a control fibroblast cell line. MERRF m.8344A>G osteosarcoma transmitochondrial cybrids were acquired from the Moraes lab (Masucci, J. P., M. P. Schon Ea Fau-King, and M. P. King, Point mutations in the mitochondrial tRNA(Lys) gene: implications for pathogenesis and mechanism. (0300-8177)).
MELAS m.3243A>G fibroblasts were grown in Eagle's minimum essential media (EMEM) supplemented with 10% heat inactivated FBS, 1 mM sodium pyruvate, 1× non-essential amino acids, 2 mM 1-glutamine, and 100 μg/ml of uridine. KSS fibroblasts were grown in EMEM supplemented with 15% heat inactivated FBS, 1× non-essential amino acids, and 100 μg/ml of uridine. Leigh/LHON syndrome fibroblast cell lines were grown in Dulbecco's modified eagle medium (DMEM) supplemented with 1 mM sodium pyruvate, 10% HI FBS, and 100 μg/ml of uridine. MERRF tRNA-LYS 8344 cybrid cells were grown in DMEM supplemented with 10% heat inactivated FBS, 1 mM sodium pyruvate and 100 μg/ml of uridine.
All cell lines with the exception of LHON/Leigh Syndrome fibroblasts were plated at a density of 50 k/well in 6 well plates. Compound (I) or 0.1% DMSO was added 8 hours later in complete media. Treatment media or vehicle media were refreshed 24 hours later for a total treatment time of 48 hours. LHON/Leigh Syndrome fibroblasts were plated and treated in the same manner but for a total treatment time of 24 hours.
mTotal RNA was isolated using NucleoSpin® kits (Macherey-Nagel) as per manufacturer's protocol. One microgram of total RNA was used to generate cDNA using the High-Capacity cDNA Reverse Transcription Kit (Applied Biosystems).
MELAS m.3243A>G fibroblasts, KSS Fibroblast and MERRF tRNA-Lys 8344 cybrid gene expression was performed using 5 ng cDNA and 300 nM of primers were mixed with water and iQ SYBR Green master mix, loaded in 384-well qPCR plates, and subsequently analyzed using a BioRad CFX384 Real-Time PCR Detection System. Fold change was calculated as ΔCt on a per sample basis was calculated as Ct (Gene of interest)−Ct (Average of reference genes). The ΔΔCt was then calculated as ΔCt (experimental sample)−Average ΔCt (control group). Fold change was calculated as 2^−ΔΔCT. LHON/Leigh Syndrome fibroblast cDNA was mixed with dH2O and SYBR Green master mix and 1 μM of primers were dispensed into the sample source plates and primer source plates in 384-well plates, respectively. Reactions were loaded into SmartChip (WaferGen Bio-systems) with Multisample Nanodispenser and the chip was analyzed in the SmartChip Cycler.
Raw expression data was exported from software and graphed after processing with reference genes and normalized against control using QBase software. To obtain normalized values, the calibrated normalized relative quantities (CNRQ) values of each sample were divided by the average CNRQ for all vehicle treated samples in order to make expression relative to the control group.

The subject of data set [2] is MERRF tRNA-Lys 8344 cybrids. Description: Seahorse mitochondrial fatty acid oxidation. The format is cell-based, human. The conditions noted are these: MERRF cybrid cell line, FIG. 4B. As for the experimental part:
(§1) FAO was measured using a Seahorse XF96 (Seahorse Biosciences). MELAS m.3243A>G fibroblasts, KSS fibroblasts, and MERRF tRNA-Lys 8344 cybrids were treated with DMSO or Compound (I) 8 hours after seeding into flasks. 24 hours after initial treatment, media was changed to complete media with DMSO or Compound (I) with reduced glucose (1.1 mM for primary fibroblasts and 5.5 mM for cybrids) and 0.5 mM carnitine. After 48 hours after initial treatment, cells were plated into 96-well cell culture microplates at a density of 40,000 cells per well. FAO assay was initiated 8 hours after plating.
(§2) 200 μL of KHB was added to the blank wells and 200 μL KHB mixed with control BSA (final 0.074 mM) or BSA-palmitate (final 0.074 mM BSA, 500 μM palmitate was added to the appropriate wells. Stress test components compounds are added in the following sequential order; 1) Oligomycin, 2) FCCP, and 3) Rotenone and Antimycin A for final concentrations of 2.5 μM, 6 μM and 1 μM, respectively. Oxidation of palmitate was assessed using the same ratio as LHON/Leigh fibroblasts.

For data set [3], the system named is KSS fibroblasts. Description: Seahorse mitochondrial fatty acid oxidation. The format is cell-based, human. As for the experimental part:
as §1, §2

The test system of data set [4] is MELAS m.3243A>G fibroblasts. The data set can be described thus: Seahorse mitochondrial fatty acid oxidation. The format is cell-based, human. As for the experimental part:
as §1, §2

Data set [5] can be described thus: 52-week monkey GLP toxicity study. Type of data set: in vivo.

Each structure is given as a SMILES string. Where “and” joins values, the source holds several entries; their conditions need not be identical. Equal values may be shown once. Entries after “also recorded” stand apart in the source; their conditions may differ.

Take `Cc1cnc(-c2ccc(C(F)(F)F)cc2)n1Cc1ccccc1OCCC[C@@H](C)CC(=O)O` [Compound (I), (R)-3-Methyl-6-(2-((5-methyl-2-(4-(trifluoromethyl)phenyl)-1H-imidazol-1-yl)methyl)-phenoxy)hexanoic acid]: in data set [1] (24 or 48 hour treatment, across all four cell lines tested, FIG. 3B), the PDK4 transcript increase was 10 to 50 fold and 10 to 100 fold. In data set [1] (24 or 48 hours treatment, FIG. 3A), the “ANGPTL4 induction (marker of target engagement)” value is “large induction; also recorded: greatly induced”. In addition, the ACADVL expression result in data set [1] (MELAS and MERRF cells, n=2, no statistical comparison) is given as “showed induction”; in data set [1] (two of the lines tested) it was “significantly upregulated”. In addition, the CPT1A transcript induction result in data set [1] (across all cell lines tested, FIG. 3D) is reported as “approximately 2 fold”. The SLC25A20 expression result in data set [1] (across all four cell lines tested, FIG. 3E) is “induced”. Moreover, in data set [1] (across four cell lines with mitochondrial mutations, FIG. 3C-3E), the “Genes involved in the import, packaging and catabolism of fatty acids into the mitochondria for OXPHOS” value is listed as “upregulated”. Besides, in data set [2] (30 nM), the “fatty acid mediated OXPHOS response” value is reported as “less pronounced”. In data set [2], the “fatty acid mediated OXPHOS, dose response” value was “dose-dependent trend”. Besides, the “fatty acid-mediated OXPHOS, dose response” value in data set [3] (KSS patient fibroblasts, two biological replicates, FIG. 4B) is recorded as “trending dose response”; in data set [4] (MELAS patient fibroblasts, two biological replicates, FIG. 4B), “trending dose response”. Also, the “increase in fatty acid mediated OXPHOS” value in data set [3] (KSS, 30 nM) is given as “thirty percent or greater”; in data set [4] (MELAS, 30 nM), “thirty percent or greater”. In addition, the “restoration to the fatty acid-mediated OXPHOS of healthy donor fibroblasts” value in data set [3] (KSS, 30 nM) is listed as “near complete restoration”; in data set [4] (MELAS, 30 nM) it was “partial”. The “no observed adverse effect level (NOAEL)” value in data set [5] is “highest tested dose”.
